Literature values as cited in paper PMC4939907 (Angewandte Chemie (International ed. in English), 2016).

System: cancer (e.g., HeLa) and normal (e.g., HS-5) cells
Details: cancer (e.g., HeLa) versus normal (e.g., HS-5) cells; ref 4c, 4d, 10b

## Nap-D-Phe-D-Phe-D-pTyr
  selectivity for cancer cells: selectively inhibits cancer cells
